The text below walks through data of patent publication US20210188897A1, “NEUROACTIVE STEROIDS AND COMPOSITIONS AND METHODS THEREOF” (Sparx Therapeutics, Inc., priority 2019, published 2021).

The target in one data set is T1, α1β2γ2 GABAA receptors (Homo sapiens, UniProt P14867+P47870).
T1 construct: expressed in transfected cells; host or cells: 293T cells (ATCC-CRL-1573)
Nature of the data set: GABAAR modulator FLIPR assay (membrane potential), α1β2γ2. In kind it is cell-based. As for the experimental part: (§1) 293T cells (ATCC-CRL-1573) were applied for transient expression of α1β2γ2 or α1β2δ GABAA receptors. Cells were plated in a 96 well plate with a confluence of about 70%-80% and cultured overnight in complete medium without antibiotics. The α1β2γ2 or α1β2δ subunits were transfected via the lipofectamine method. The FLIPR assay was developed to quantitatively assess the compounds' PAM activity in α1β2γ2 and α1β2δ GABAA receptors. The FLIPR assays were conducted 48 h post-transfection. The FLIPR reagents were purchased from Molecular Devices Corporation (Membrane potential red kit, Catalog number R8126). The FMP-Red-Dye was reconstituted to 1× assay buffer. Growth medium was removed from the wells and cells were loaded with 100 μL FMP-Red-Due solution for 30 minutes in the dark at r.t. After dye loading, each plate was transferred to the FLIPR Tetra Station: the dye was excited at 510-545 nm, and the fluorescence signals were recorded at 565-625 nm. Baseline recordings were acquired for 1 minute. FMP-Red-Dye is a slow-response, potential sensitive probe and the maximal response is usually seen within 2 minutes after triggering cellular depolarization or hyperpolarization. After baseline recording, the different doses of compound solutions were firstly added on cells and the fluorescent signals were recorded for 5 minutes. Then the cells were followed by a second addition with ligand GABA solution and recorded for another 3.5 minutes. Cell responses were calculated as ΔF=Fmax−Fmin, where Fmax was the maximum response in arbitrary fluorescence units, and Fmin was the baseline arbitrary fluorescence unit value.

The subject of data set [1] is 5XFAD and wild type mice. Description: Forced swim test. It counts as in vivo. Conditions: 9-month old 5XFAD and wild type mice, 20 mg/kg oral gavage, 45 minutes post dosing; FIG. 3. As for the experimental part:
9-month old 5XFAD transgenic mice (expressing human APP and PSEN1 transgenes with 5 AD-linked mutations) and wild type litermates (C57/B16) were dosed as at 20 mg/kg via oral gavage. The cognitive and mood behavioral tests were performed 45 minutes post dosing.
The forced swim test is a test for depression-like behavior in rodents. The assay involves observing a mouse stay afloat in a tank of water and monitoring how much time it spends immobile.

The subject of data set [2] is 5XFAD and wild type mice. Description: Open field test. It counts as in vivo. The conditions noted are these: 9-month old 5XFAD and wild type mice, 20 mg/kg oral gavage, 45 minutes post dosing; FIG. 2. Here is the method: 9-month old 5XFAD transgenic mice (expressing human APP and PSEN1 transgenes with 5 AD-linked mutations) and wild type litermates (C57/B16) were dosed as at 20 mg/kg via oral gavage. The total distance travelled was recorded in an open field chamber 45 minutes post dosing.

The next data set deals with T2, α1β2δ GABAA receptors (Homo sapiens, UniProt P14867+P47870).
T2 construct: expressed in transfected cells; host or cells: 293T cells (ATCC-CRL-1573)
T2 sequence (P14867 28-456): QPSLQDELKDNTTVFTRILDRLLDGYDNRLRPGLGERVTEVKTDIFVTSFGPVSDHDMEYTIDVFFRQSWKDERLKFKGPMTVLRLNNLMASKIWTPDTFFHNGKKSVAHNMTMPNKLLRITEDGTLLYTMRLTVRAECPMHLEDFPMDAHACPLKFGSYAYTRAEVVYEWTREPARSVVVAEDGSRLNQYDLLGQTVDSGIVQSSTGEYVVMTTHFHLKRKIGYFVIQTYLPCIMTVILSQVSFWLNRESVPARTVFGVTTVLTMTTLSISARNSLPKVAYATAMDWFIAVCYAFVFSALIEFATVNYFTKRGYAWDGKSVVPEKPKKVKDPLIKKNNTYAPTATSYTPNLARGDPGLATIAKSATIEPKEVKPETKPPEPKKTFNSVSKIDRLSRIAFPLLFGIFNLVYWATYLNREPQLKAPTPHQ
T2 sequence (P47870 25-512 limits assumed): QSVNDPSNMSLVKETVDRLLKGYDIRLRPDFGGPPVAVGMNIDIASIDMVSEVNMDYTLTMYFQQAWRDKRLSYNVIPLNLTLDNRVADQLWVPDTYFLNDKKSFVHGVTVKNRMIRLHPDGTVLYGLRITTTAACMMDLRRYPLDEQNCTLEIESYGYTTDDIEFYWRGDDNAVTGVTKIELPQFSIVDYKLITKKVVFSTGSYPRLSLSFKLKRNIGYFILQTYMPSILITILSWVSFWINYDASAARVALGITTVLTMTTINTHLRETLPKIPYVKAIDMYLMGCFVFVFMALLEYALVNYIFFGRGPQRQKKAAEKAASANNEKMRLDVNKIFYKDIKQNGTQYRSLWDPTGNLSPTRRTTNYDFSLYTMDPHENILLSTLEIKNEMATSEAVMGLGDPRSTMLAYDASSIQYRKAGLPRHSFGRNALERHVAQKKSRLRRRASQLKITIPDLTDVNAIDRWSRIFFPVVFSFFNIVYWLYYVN
T2 sequence (O14764 17-452 partner limits assumed): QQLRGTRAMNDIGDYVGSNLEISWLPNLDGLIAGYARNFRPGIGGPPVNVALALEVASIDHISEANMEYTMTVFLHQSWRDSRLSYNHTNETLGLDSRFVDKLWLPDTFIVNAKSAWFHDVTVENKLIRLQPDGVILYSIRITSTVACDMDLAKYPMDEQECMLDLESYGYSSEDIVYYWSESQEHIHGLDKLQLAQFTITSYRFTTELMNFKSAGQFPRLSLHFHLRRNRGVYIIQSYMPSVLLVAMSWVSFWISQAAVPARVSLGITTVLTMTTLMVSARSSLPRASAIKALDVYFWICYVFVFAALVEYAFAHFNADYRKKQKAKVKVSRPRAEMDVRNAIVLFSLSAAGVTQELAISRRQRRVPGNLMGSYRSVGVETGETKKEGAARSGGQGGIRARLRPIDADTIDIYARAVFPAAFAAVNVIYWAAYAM
Nature of the data set: GABAAR modulator FLIPR assay (membrane potential), α1β2δ. It counts as cell-based. As for the experimental part:
as §1

Where [3] appears, read: 293T cells transiently expressing α1β2γ2 GABAA receptors, FLIPR, PAM activity, read-out: EC50 in α1β2γ2/293T.
The mark [4] stands for this setting: 293T cells transiently expressing α1β2δ GABAA receptors, FLIPR, PAM activity, read-out: EC50 in α1β2δ/293T.

Where two headings read alike, the source gives them in different places.

T1 sequence (P18507 40-475 partner, one chain of several): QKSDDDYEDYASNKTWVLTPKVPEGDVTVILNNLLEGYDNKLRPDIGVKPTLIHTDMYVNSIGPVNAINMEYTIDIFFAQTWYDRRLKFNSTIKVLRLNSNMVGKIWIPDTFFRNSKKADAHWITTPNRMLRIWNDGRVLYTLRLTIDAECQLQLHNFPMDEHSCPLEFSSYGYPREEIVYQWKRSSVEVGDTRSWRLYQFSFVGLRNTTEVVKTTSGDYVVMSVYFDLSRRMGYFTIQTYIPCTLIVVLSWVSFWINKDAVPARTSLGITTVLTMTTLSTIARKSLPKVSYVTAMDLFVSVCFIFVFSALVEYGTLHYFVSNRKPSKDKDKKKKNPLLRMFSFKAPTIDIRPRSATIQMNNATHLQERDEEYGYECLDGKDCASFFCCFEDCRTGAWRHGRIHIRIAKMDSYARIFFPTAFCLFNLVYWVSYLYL

Take `C[C@@]1(O)CC[C@H]2[C@H](CC[C@@H]3[C@@H]2CC(F)(F)[C@]2(C)[C@@H](C(=O)Cn4ccc(C#N)n4)CC[C@@H]32)C1` [Example 8, 1-(2-((3R,5R,8R,9R,10S,13S,14S,17S)-12,12-difluoro-3-hydroxy-3,13-dimethylhexadecahydro-1H-cyclopenta[a]phenanthren-17-yl)-2-oxoethyl)-1H-pyrazole-3-carbonitrile]: the EC50 on α1β2γ2 GABAA receptors (setting [3]) worked out at 630 nM; at α1β2δ GABAA receptors (setting [4]), 250 nM. Moreover, the “efficacy in forced swim test (time immobile, depression-like behavior)” value in the data set with 5XFAD and wild type mice [1] is “genotype-specific efficacy”. In addition, the “locomotor functions (total distance travelled in open field chamber)” value with 5XFAD and wild type mice [2] was “no interference of the locomotor functions”.

With `C[C@@]1(O)CC[C@H]2[C@H](CC[C@@H]3[C@@H]2CC(F)(F)[C@]2(C)[C@@H](C#N)CC[C@@H]32)C1` [Example 4, (3R,5R,8R,9R,10S,13S,14S,17S)-12,12-difluoro-3-hydroxy-3,13-dimethylhexadecahydro-1H-cyclopenta[a]phenanthrene-17-carbonitrile], the EC50 on α1β2γ2 GABAA receptors (setting [3]) was 2950 nM; at α1β2δ GABAA receptors (setting [4]) it was 710 nM.

As to `C[C@@]1(O)CC[C@H]2[C@H](CC[C@@H]3[C@@H]2CC(F)(F)[C@]2(C)[C@@H](C(=O)Cn4cc(C#N)cn4)CC[C@@H]32)C1` [Example 6, 1-(2-((3R,5R,8R,9R,10S,13S,14S,17S)-12,12-difluoro-3-hydroxy-3,13-dimethylhexadecahydro-1H-cyclopenta[a]phenanthren-17-yl)-2-oxoethyl)-1H-pyrazole-4-carbonitrile], the EC50 is 470 nM at α1β2γ2 GABAA receptors (setting [3]) and 120 nM at α1β2δ GABAA receptors (setting [4]).

Turning to `CC(=O)[C@H]1CC[C@H]2[C@@H]3CC[C@@H]4C[C@](C)(O)CC[C@@H]4[C@H]3CC(F)(F)[C@]12C` [Example 5, 1-((3R,5R,8R,9R,10S,13S,14S,17S)-12,12-difluoro-3-hydroxy-3,13-dimethylhexadecahydro-1H-cyclopenta[a]phenanthren-17-yl)ethan-1-one], the EC50 on α1β2γ2 GABAA receptors (setting [3]) came out at 390 nM; at α1β2δ GABAA receptors (setting [4]) it was 190 nM.

For the compound `C=C1C[C@H]2[C@@H](CC[C@@H]3C[C@](C)(O)CC[C@@H]32)[C@@H]2CC[C@H](C(C)=O)[C@@]12C` [Example 2, 1-((3R,5R,8R,9R,10S,13S,14S,17S)-3-hydroxy-3,13-dimethyl-12-methylenehexadecahydro-1H-cyclopenta[a]phenanthren-17-yl)ethan-1-one], the EC50 on α1β2γ2 GABAA receptors (setting [3]) was found to be 280 nM; on α1β2δ GABAA receptors (setting [4]), 98 nM.

Regarding `C=C1C[C@H]2[C@@H](CC[C@@H]3C[C@](C)(O)CC[C@@H]32)[C@@H]2CC[C@H](C#N)[C@@]12C` [Example 1, (3R,5R,8R,9R,10S,13S,14S,17S)-3-hydroxy-3,13-dimethyl-12-methylenehexadecahydro-1H-cyclopenta[a]phenanthrene-17-carbonitrile], the EC50 on α1β2γ2 GABAA receptors was determined as 270 nM; on α1β2δ GABAA receptors, 81 nM.

`C[C@@]1(O)CC[C@H]2[C@H](CC[C@@H]3[C@@H]2CC(F)(F)[C@]2(C)[C@@H](C(=O)Cn4cc(F)cn4)CC[C@@H]32)C1` [Example 7, 1-((3R,5R,8R,9R,10S,13S,14S,17S)-12,12-difluoro-3-hydroxy-3,13-dimethylhexadecahydro-1H-cyclopenta[a]phenanthren-17-yl)-2-(4-fluoro-1H-pyrazol-1-yl)ethan-1-one]: the EC50 at α1β2γ2 GABAA receptors (setting [3]) came to 740 nM; on α1β2δ GABAA receptors (setting [4]) it was 390 nM.
